Test results as given in patent US11477982B2, “2-amino-5-oxyalkyl-pyrimidine derivatives and their use for controlling undesired plant growth” (Bayer CropScience Aktiengesellschaft, priority 2017, dated 2022).

Tests used:
Assay type in all cases: in vivo
[1] = tested on: AMARE: Amaranthus retroflexus; assay: Pre-emergence herbicidal effect; conditions: pre-emergence; dosage 320 g/ha
Excerpt: (§1) 1. Pre-Emergence Herbicidal Effect and Crop Plant Compatibility
(§2) Seeds of monocotyledonous and dicotyledonous weed plants and crop plants are placed in plastic or wood fiber pots and covered with soil. The compounds of the invention, formulated in the form of wettable powders (WP) or as emulsion concentrates (EC), are then applied onto the surface of the covering soil as aqueous suspension or emulsion with addition of 0.5% additive at a water application rate of 600 l/ha (converted).
(§3) After the treatment, the pots are placed in a greenhouse and kept under good growth conditions for the trial plants. After about 3 weeks, the effect of the preparations is scored visually in comparison with untreated controls as percentages. For example, 100% activity=the plants have died, 0% activity=like control plants.

HORMU: Hordeum murinum = assay: Pre-emergence herbicidal effect; conditions: pre-emergence; dosage 320 g/ha
Excerpt: as §1, §2, §3

VIOTR: Viola tricolor [2] = assay: Pre-emergence herbicidal effect; conditions: dosage 320 g/ha
Excerpt: as §1, §2, §3

[3] = tested on: ALOMY: Alopecurus myosuroides; assay: Pre-emergence herbicidal effect; conditions: pre-emergence; dosage 320 g/ha
Excerpt: as §1, §2, §3

PHBPU: Ipomoea purpurea = assay: Pre-emergence herbicidal effect; conditions: dosage 320 g/ha
Excerpt: as §1, §2, §3

[4] = tested on: ECHCG: Echinochloa crus-galli; assay: Pre-emergence herbicidal effect; conditions: pre-emergence; dosage 320 g/ha
Excerpt: as §1, §2, §3

AVEFA: Avena fatua = assay: Pre-emergence herbicidal effect; conditions: dosage 320 g/ha
Excerpt: as §1, §2, §3

[5] = tested on: POLCO: Polygonum convolvulus; assay: Pre-emergence herbicidal effect; conditions: dosage 320 g/ha
Excerpt: as §1, §2, §3

[6] = tested on: ABUTH: Abutilon theophrasti; assay: Pre-emergence herbicidal effect; conditions: dosage 320 g/ha
Excerpt: as §1, §2, §3

VERPE: Veronica persica [7] = assay: Pre-emergence herbicidal effect; conditions: dosage 320 g/ha
Excerpt: as §1, §2, §3

STEME: Stellaria media [8] = assay: Pre-emergence herbicidal effect; conditions: pre-emergence; dosage 320 g/ha
Excerpt: as §1, §2, §3

LOLRI: Lolium rigidum = assay: Pre-emergence herbicidal effect; conditions: dosage 320 g/ha
Excerpt: as §1, §2, §3

SETVI: Setaria viridis [9] = assay: Pre-emergence herbicidal effect; conditions: pre-emergence; dosage 320 g/ha
Excerpt: as §1, §2, §3

[10] = tested on: MATIN: Matricaria inodora; assay: Pre-emergence herbicidal effect; conditions: pre-emergence; dosage 320 g/ha
Excerpt: as §1, §2, §3

[11] = tested on: AMARE: Amaranthus retroflexus; assay: Post-emergence herbicidal effect; conditions: dosage 320 g/ha
Procedure: (§4) 2. Post-Emergence Herbicidal Effect and Crop Plant Compatibility
(§5) Seeds of monocotyledonous and dicotyledonous weeds and crop plants are placed in sandy loam in plastic or wood-fiber pots, covered with soil and cultivated in a greenhouse under controlled growth conditions, 2 to 3 weeks after sowing, the test plants are treated at the one-leaf stage. The compounds of the invention, formulated in the form of wettable powders (WP) or as emulsion concentrates (EC), are then sprayed onto the green parts of the plants as aqueous suspension or emulsion with addition of 0.5% additive at a water application rate of 600 l/ha (converted). After the test plants had been kept in the greenhouse under optimum growth conditions for about 3 weeks, the activity of the preparations is rated visually in comparison to untreated controls. For example, 100% activity=the plants have died, 0% activity=like control plants.

VIOTR: Viola tricolor [12] = assay: Post-emergence herbicidal effect; conditions: dosage 320 g/ha
Procedure: as §4, §5

[13] = tested on: ECHCG: Echinochloa crus-galli; assay: Post-emergence herbicidal effect; conditions: dosage 320 g/ha
Procedure: as §4, §5

[14] = tested on: ABUTH: Abutilon theophrasti; assay: Post-emergence herbicidal effect; conditions: dosage 320 g/ha
Procedure: as §4, §5

VERPE: Veronica persica [15] = assay: Post-emergence herbicidal effect; conditions: dosage 320 g/ha
Procedure: as §4, §5

STEME: Stellaria media [16] = assay: Post-emergence herbicidal effect; conditions: dosage 320 g/ha
Procedure: as §4, §5

SETVI: Setaria viridis [17] = assay: Post-emergence herbicidal effect; conditions: dosage 320 g/ha
Procedure: as §4, §5

Structure (SMILES) | Herbicidal action against AMARE [1] [%] | Herbicidal action against HORMU (HORMU: Hordeum murinum) [%] | Herbicidal action against VIOTR (VIOTR: Viola tricolor [2]) [%] | Herbicidal action against ALOMY [3] [%] | Herbicidal action against PHBPU (PHBPU: Ipomoea purpurea) [%] | Herbicidal action against ECHCG [4] [%] | Herbicidal action against AVEFA (AVEFA: Avena fatua) [%] | Herbicidal action against POLCO [5] [%] | Herbicidal action against ABUTH [6] [%] | Herbicidal action against VERPE (VERPE: Veronica persica [7]) [%] | Herbicidal action against STEME (STEME: Stellaria media [8]) [%] | Herbicidal action against LOLRI (LOLRI: Lolium rigidum) [%] | Herbicidal action against SETVI (SETVI: Setaria viridis [9]) [%] | Herbicidal action against MATIN [10] [%] | Herbicidal action against AMARE [11] [%] | Herbicidal action against VIOTR (VIOTR: Viola tricolor [12]) [%] | Herbicidal action against ECHCG [13] [%] | Herbicidal action against ABUTH [14] [%] | Herbicidal action against VERPE (VERPE: Veronica persica [15]) [%] | Herbicidal action against STEME (STEME: Stellaria media [16]) [%] | also measured
CC1Cc2ccccc2C1Nc1ncc(C(C)(C)O)cn1 (mixture of isomers) [Example 1.55] | 100 | 100 | 100 | 90 | 90 | 100 | 100 | 100 | 100 | 100 | 100 | 100 | 100 | 100 | 90 | 90 | 100 | 90 | 90 | 90 | Herbicidal action against SETVI (SETVI: Setaria viridis [17]): 100%
Cc1ccc2c(c1)[C@H](Nc1ncc(C(C)O)c(C)n1)CC2 (some centres unmarked) [Example 1.13] | 100 | 100 | 100 | 100 | 100 | 100 | 100 | 100 | 100 | 100 | 100 | 100 | 100 | 100 | 90 |  | 100 | 80 |  | 90 | 
Cc1ccc2c(c1)[C@H](Nc1ncc(C(C)(C)O)c(C(F)F)n1)[C@@H](C)C2 [Example 1.17] | 100 | 100 | 100 | 100 | 80 | 100 | 100 | 100 | 100 | 100 | 100 | 100 | 100 | 100 | 80 |  | 80 | 90 |  | 100 | 
Cc1ccc2c(c1)[C@H](Nc1ncc(C(C)(O)C3CC3)cn1)[C@@H](C)C2 (some centres unmarked) [Example 1.20] | 100 | 100 | 100 | 100 | 100 | 100 | 100 | 100 | 100 | 100 | 100 | 100 | 100 | 100 | 90 |  | 100 | 90 |  | 100 | 
Cc1ccc2c(c1)[C@H](Nc1ncc(C(C)(C)O)c(C(C)F)n1)[C@@H](C)C2 (some centres unmarked) [Example 1.23] | 100 | 80 | 100 | 100 | 100 | 100 | 100 | 100 | 100 | 100 | 100 | 100 | 100 | 100 |  |  |  |  |  |  | 
CC(C)(O)c1cnc(N[C@@H]2CCc3ccccc32)nc1 [Example 1.30] | 100 |  | 100 |  |  |  |  | 100 |  | 100 |  |  |  | 100 | 100 | 90 | 100 | 90 | 80 | 100 | Herbicidal action against SETVI (SETVI: Setaria viridis [17]): 90%
Cc1ccc2c(c1)[C@H](Nc1ncc(C(C)(C)O)cn1)CCO2 [Example 1.38] | 100 |  | 100 |  |  |  |  | 100 |  | 100 |  |  |  | 100 | 100 | 90 | 100 | 90 | 90 | 100 | Herbicidal action against SETVI (SETVI: Setaria viridis [17]): 90%
Cc1ccc2c(c1)[C@H](Nc1ncc(C(C)(C)O)c(C)n1)CCO2 [Example 1.53] | 100 | 100 | 100 | 100 | 100 | 100 | 100 | 100 | 100 | 100 | 100 | 90 | 100 | 100 | 90 |  | 100 | 90 |  | 90 | 
CCC(O)(c1cnc(N[C@H]2c3cc(C)ccc3C[C@@H]2C)nc1)C(F)(F)F (some centres unmarked) [Example 1.58] | 100 |  | 100 |  |  |  |  | 100 |  | 100 |  |  |  | 100 | 90 | 90 | 100 | 90 | 90 | 90 | Herbicidal action against SETVI (SETVI: Setaria viridis [17]): 90%
Cc1ccc2c(c1)[C@H](Nc1ncc(C(C)(O)C3(C)CC3)cn1)[C@@H](C)C2 (some centres unmarked) [Example 1.61] | 100 | 100 | 100 | 100 | 90 | 100 | 80 | 100 | 100 | 100 | 100 | 100 | 100 | 100 | 90 |  | 100 | 90 |  | 90 | 
